# Measurements published in article PMC3552814, “Elimination Rates of Dioxin Congeners in Former Chlorophenol Workers from Midland, Michigan” (Environmental Health Perspectives, 2012).
# Experiment: not given
# Parameters: method as in van den Berg et al. 2006
# Conditions: WHO toxic equivalency factor; ref van den Berg et al. 2006; cited from earlier work
row,SMILES,TEF
1,"Clc1c(Cl)c(Cl)c2c(c1Cl)Oc1c(Cl)c(Cl)c(Cl)c(Cl)c1O2 [OCDD, octachlorodibenzo-p-dioxin]",0.0003
2,"Clc1cc2c(cc1Cl)Oc1cc(Cl)c(Cl)cc1O2 [TCDD, 2,3,7,8-tetrachlorodibenzo-p-dioxin]",1
3,"Clc1cc2c(c(Cl)c1Cl)Oc1cc(Cl)c(Cl)c(Cl)c1O2 [Congener 16HxCDD, 1,2,3,6,7,8-hexachlorodibenzo-p-dioxin]",0.1

# Experiment: not given
# Parameters: method as in Patterson et al. 2009
# Conditions: 50th percentile, persons ≥ 60 years of age; LODs variable; ref Patterson et al. 2009; cited from earlier work
row,SMILES,NHANES (2003–2004) P50
1,"Clc1c(Cl)c(Cl)c2c(c1Cl)Oc1c(Cl)c(Cl)c(Cl)c(Cl)c1O2 [OCDD, octachlorodibenzo-p-dioxin]",370 pg/g lipid
2,"Clc1cc2c(c(Cl)c1Cl)Oc1cc(Cl)c(Cl)c(Cl)c1O2 [Congener 16HxCDD, 1,2,3,6,7,8-hexachlorodibenzo-p-dioxin]",47.3 pg/g lipid

# Same assay, conditions: 95th percentile, persons ≥ 60 years of age; ref Patterson et al. 2009; cited from earlier work
row,SMILES,NHANES (2003–2004) P95
1,"Clc1c(Cl)c(Cl)c2c(c1Cl)Oc1c(Cl)c(Cl)c(Cl)c(Cl)c1O2 [OCDD, octachlorodibenzo-p-dioxin]","1,180 pg/g lipid"
2,"Clc1cc2c(cc1Cl)Oc1cc(Cl)c(Cl)cc1O2 [TCDD, 2,3,7,8-tetrachlorodibenzo-p-dioxin]",7.9 pg/g lipid
3,"Clc1cc2c(c(Cl)c1Cl)Oc1cc(Cl)c(Cl)c(Cl)c1O2 [Congener 16HxCDD, 1,2,3,6,7,8-hexachlorodibenzo-p-dioxin]",104 pg/g lipid

# Experiment: not given
# Conditions: from change in concentration; n = 6; ages 41–73 years; ref Rohde et al. 1999; cited from earlier work
row,SMILES,"Half-life of elimination, Rohde et al. 1999 (mean)"
1,"Clc1c(Cl)c(Cl)c2c(c1Cl)Oc1c(Cl)c(Cl)c(Cl)c(Cl)c1O2 [OCDD, octachlorodibenzo-p-dioxin]",8.7 years
2,"Clc1cc2c(cc1Cl)Oc1cc(Cl)c(Cl)cc1O2 [TCDD, 2,3,7,8-tetrachlorodibenzo-p-dioxin]",8.7 years
3,"Clc1cc2c(c(Cl)c1Cl)Oc1cc(Cl)c(Cl)c(Cl)c1O2 [Congener 16HxCDD, 1,2,3,6,7,8-hexachlorodibenzo-p-dioxin]",11.6 years

# Same assay, conditions: from change in concentration; n = 26 to 48; mean age 48.7 years at first sampling; ref Flesch-Janys et al. 1996; cited from earlier work
row,SMILES,"Half-life of elimination, Flesch-Janys et al. 1996 (median)"
1,"Clc1c(Cl)c(Cl)c2c(c1Cl)Oc1c(Cl)c(Cl)c(Cl)c(Cl)c1O2 [OCDD, octachlorodibenzo-p-dioxin]",6.7 years
2,"Clc1cc2c(cc1Cl)Oc1cc(Cl)c(Cl)cc1O2 [TCDD, 2,3,7,8-tetrachlorodibenzo-p-dioxin]",7.2 years
3,"Clc1cc2c(c(Cl)c1Cl)Oc1cc(Cl)c(Cl)c(Cl)c1O2 [Congener 16HxCDD, 1,2,3,6,7,8-hexachlorodibenzo-p-dioxin]",13.1 years

# Experiment: Serum lipid-adjusted dioxin congener concentrations in former chlorophenol workers, repeated blood sampling 2004–2005 and 2010
# Type: in vivo, human
# Conditions: change in concentration from 2004–2005 to 2010
# Excerpt: Participant selection. The selection strategy called for drawing a stratified random sample of workers included in the previous 2004–2005 blood draw. […] We used the 95th percentile of age-specific U.S. population concentrations for each congener identified in the National Health and Nutrition Examination Survey (NHANES; [Centers for Disease Control and Prevention 2009]) to define the upper ends of the background ranges. Nine strata were formed based jointly on previous serum levels of TCDD (high, > 50 ppt; moderate, 10–50 ppt; and background, < 10 ppt), representing workers in predominantly TCP processes, and OCDD (high, > 5,000 ppt; moderate, 1,000–5,000 ppt; and background, < 1,000 ppt), representing those with experience in PCP processes. We attempted to enroll participants representing each of these strata. Invitations to participate were sent to our target sample of 72 workers who were selected based on these congener concentration criteria.
# Questionnaire and data collection methods. We conducted the serum analyses in 2010 using the same protocol, procedures, and laboratory as in the 2004–2005 blood draw ([Collins et al. 2006]). The serum samples were tested for 7 polychlorinated dibenzo-p-dioxins (PCDDs), 10 polychlorinated dibenzofurans (PCDFs), and 15 polychlorinated biphenyls (PCBs). […] The study was conducted pursuant to approval and oversight by the Dow Human Subjects Review Board in Midland, Michigan. All study participants gave informed consent.
# On the day of examination in the fall of 2010, participants donated blood and completed the same questionnaire originally administered during the 2004–2005 sampling effort ([Collins et al. 2006]). The questionnaire addressed dietary and smoking habits, work history, and recent changes in weight. Height, weight, and blood pressure were also measured. Diagnosis of chloracne during occupational exposure was extracted from workplace medical records; the criteria for chloracne diagnosis were defined previously by [Bond et al. (1990)].
row,SMILES,Mean percent change
1,"Clc1c(Cl)c(Cl)c2c(c1Cl)Oc1c(Cl)c(Cl)c(Cl)c(Cl)c1O2 [OCDD, octachlorodibenzo-p-dioxin]",–41%
2,"Clc1cc2c(cc1Cl)Oc1cc(Cl)c(Cl)cc1O2 [TCDD, 2,3,7,8-tetrachlorodibenzo-p-dioxin]",–39%
3,"Clc1cc2c(c(Cl)c1Cl)Oc1cc(Cl)c(Cl)c(Cl)c1O2 [Congener 16HxCDD, 1,2,3,6,7,8-hexachlorodibenzo-p-dioxin]",–31%

# Same assay, conditions: serum, 56 Midland study participants, 2004–2005 sampling
row,SMILES,"Concentration 2004–2005, Mean ± SD"
1,"Clc1c(Cl)c(Cl)c2c(c1Cl)Oc1c(Cl)c(Cl)c(Cl)c(Cl)c1O2 [OCDD, octachlorodibenzo-p-dioxin]",1919.6 ± 2121.0 pg/g lipid
2,"Clc1cc2c(cc1Cl)Oc1cc(Cl)c(Cl)cc1O2 [TCDD, 2,3,7,8-tetrachlorodibenzo-p-dioxin]",21.1 ± 30.0 pg/g lipid
3,"Clc1cc2c(c(Cl)c1Cl)Oc1cc(Cl)c(Cl)c(Cl)c1O2 [Congener 16HxCDD, 1,2,3,6,7,8-hexachlorodibenzo-p-dioxin]",136.6 ± 99.9 pg/g lipid

# Same assay, conditions: serum, 56 Midland study participants, 2010 sampling
row,SMILES,"Concentration 2010, Mean ± SD"
1,"Clc1c(Cl)c(Cl)c2c(c1Cl)Oc1c(Cl)c(Cl)c(Cl)c(Cl)c1O2 [OCDD, octachlorodibenzo-p-dioxin]",1124.7 ± 1232.0 pg/g lipid
2,"Clc1cc2c(cc1Cl)Oc1cc(Cl)c(Cl)cc1O2 [TCDD, 2,3,7,8-tetrachlorodibenzo-p-dioxin]",12.9 ± 19.6 pg/g lipid
3,"Clc1cc2c(c(Cl)c1Cl)Oc1cc(Cl)c(Cl)c(Cl)c1O2 [Congener 16HxCDD, 1,2,3,6,7,8-hexachlorodibenzo-p-dioxin]",94.3 ± 70.8 pg/g lipid

# Experiment: Elimination half-lives from serial serum samples, first-order one-compartment model
# Type: in vivo
# Conditions: human, serum (lipid-adjusted), other: occupational exposure, 56 participants; based on change in estimated mass of the congener in the body; read-out: Elimination half-lives [median (P25–P75)], Apparent, mass based (converted)
# Excerpt: Elimination rates. Changes in measured concentrations of persistent compounds such as PCDDs and PCDFs reflect not only intrinsic elimination rates but also any ongoing intakes of the compounds and changes in the volume of distribution, in this case, the volume of body lipids ([Bartell 2012]; [Ritter et al. 2009], [2011]). If current body concentrations are high relative to steady-state concentrations associated with current background intake rates, apparent elimination rates will approximate intrinsic elimination rates ([Bartell 2012]; [van der Molen et al. 1998]). If, on the other hand, background intakes are high compared with current body concentrations, the estimated apparent elimination rate will be lower than the intrinsic rates. Robust data regarding ongoing congener intake rates were not available, so the elimination rates were first calculated based on net rate of change of the congeners, which reflects both intrinsic elimination rates and unmeasured intake rates, termed “apparent” elimination rates.
# We calculated apparent elimination rates in two ways: based on changes in concentration, or based on changes in estimated body amounts. For the former approach, concentrations of congener i in 2005 and 2010 (Ci,2005 and Ci,2010, respectively) and time between sampling dates (Δt), were used to estimate the elimination rate (ki):
# Concentrations of lipophilic compounds may change in response to changes in the volume of distribution (increase or decrease in amount of body fat), even in the absence of any elimination or additional exposure ([Charlier et al. 2002]; [Chevrier et al. 2000]; [Hue et al. 2006]; [Imbeault et al. 2001]; [Pelletier et al. 2002]; [Walford et al. 1999]). Thus, we also estimated the rate of change in estimated whole body mass of each congener. For the approach based on changes in estimated mass of dioxins in the body, the congener concentrations in 2005 and 2010 were replaced by the estimated amounts, A, of congener i in the body:
# where PBF is percent body fat estimated using an age-, sex-, and body mass index (BMI)-specific formula, which has been validated in adults over a range of ages including those of the participants in this study ([Deurenberg et al. 1991]), BW is body weight in kilograms, and Ci is the serum lipid–adjusted concentration of congener i. This approach assumes that the compound is distributed solely in body lipid. The resulting amount, Ai, calculated for each sampling time and congener was used in Equation 1 in place of concentration for calculating the apparent whole-body mass-based elimination rate.
# Elimination half-lives (t1/2) corresponding to the estimated elimination rates, (k) were calculated for some comparisons with previous literature:
# Inclusion of plausible background exposures. […] Changes in concentration or estimated mass of compound in the body reflect the net effect of both elimination and any ongoing exposures between sampling time points. Under a first-order model, the amount of compound in the body in 2010 (A2010) is a function of both the intrinsic elimination rate, kint, and the ongoing exposure rate between sampling time points:
# where D is the yearly dose rate in nanograms per year, and A2005 is the starting amount in 2005. As described by [Ritter et al. (2011)], intrinsic elimination rates can be estimated if ongoing exposure levels are known or can be estimated.
row,SMILES,half-life
1,"Clc1c(Cl)c(Cl)c2c(c1Cl)Oc1c(Cl)c(Cl)c(Cl)c(Cl)c1O2 [OCDD, octachlorodibenzo-p-dioxin]",3030 days
2,"Clc1cc2c(cc1Cl)Oc1cc(Cl)c(Cl)cc1O2 [TCDD, 2,3,7,8-tetrachlorodibenzo-p-dioxin]",2560 days
3,"Clc1cc2c(c(Cl)c1Cl)Oc1cc(Cl)c(Cl)c(Cl)c1O2 [Congener 16HxCDD, 1,2,3,6,7,8-hexachlorodibenzo-p-dioxin]",4020 days

# Same assay, conditions: human, serum (lipid-adjusted), other: occupational exposure, 56 participants; based on change in serum lipid concentration; read-out: Elimination half-lives [median (P25–P75)], Apparent, concentration based (converted)
row,SMILES,half-life
1,"Clc1c(Cl)c(Cl)c2c(c1Cl)Oc1c(Cl)c(Cl)c(Cl)c(Cl)c1O2 [OCDD, octachlorodibenzo-p-dioxin]",2850 days
2,"Clc1cc2c(cc1Cl)Oc1cc(Cl)c(Cl)cc1O2 [TCDD, 2,3,7,8-tetrachlorodibenzo-p-dioxin]",2370 days
3,"Clc1cc2c(c(Cl)c1Cl)Oc1cc(Cl)c(Cl)c(Cl)c1O2 [Congener 16HxCDD, 1,2,3,6,7,8-hexachlorodibenzo-p-dioxin]",3690 days

# Same assay, conditions: human, serum (lipid-adjusted), other: occupational exposure, 56 participants; change in body mass after accounting for plausible background intake (Table 3); read-out: Elimination half-lives [median (P25–P75)], Estimated intrinsic (converted)
row,SMILES,half-life
1,"Clc1c(Cl)c(Cl)c2c(c1Cl)Oc1c(Cl)c(Cl)c(Cl)c(Cl)c1O2 [OCDD, octachlorodibenzo-p-dioxin]",2670 days
2,"Clc1cc2c(cc1Cl)Oc1cc(Cl)c(Cl)cc1O2 [TCDD, 2,3,7,8-tetrachlorodibenzo-p-dioxin]",2370 days
3,"Clc1cc2c(c(Cl)c1Cl)Oc1cc(Cl)c(Cl)c(Cl)c1O2 [Congener 16HxCDD, 1,2,3,6,7,8-hexachlorodibenzo-p-dioxin]",3290 days
